Measurements: article PMC12867150, “A fungi-derived cyclic peptide enhances Th9-mediated antitumor immunity by targeting ZAP70 and SREBP1” (The Journal of Clinical Investigation, 2025)
Several values for one entry are separate records, joined by “and”; a condition that tells them apart may be missing. Identical values can stand only once.

Experiments:
[1] = Body weight after ACT (S1A); format: in vivo, mouse; conditions: EpA-Th9 therapy vs control; result in words
Method: C57BL/6 mice were subcutaneously injected with 5 × 10^5 B16-OVA melanoma cells. Five days after tumor implantation, mice received an intravenous infusion of 2 × 10^6 in vitro–differentiated Th9 cells (cultured for 5 days), which were derived from OT-II CD45.1 donor mice, accompanied by 4 × 10^5 OVA peptide–pulsed DCs via the tail vein. To enhance T cell engraftment and facilitate lymphodepletion, a single intraperitoneal injection of cyclophosphamide (200 mg/kg, Sigma, catalog C0768) was administered 1 day prior to T cell transfer. Mice were euthanized at designated time points for the collection and analysis of spleens, tumor-draining lymph nodes, and tumor tissues.
Days after ACT Days after ACT
Figure S1. EpA enhances immune responses.
(A) Body weight of mice after ACT in PBS, control, and EpA-treated groups. (B) Serum IL-6 levels after ACT, measured by ELISA on days 5, 10, 15, and 20. (C–E) Representative flow-cytometric plots showing transferred CD45.1⁺ OT-II Th9 cells in spleens (C), tumor-draining lymph nodes (LNs) (D), and tumors (E); frequencies Figure S1 and absolute numbers of CD45.1⁺ OT-II Th9 cells in LNs are quantified in (D). (F–
I) Representative flow-cytometric plots of endogenous CD4⁺ and CD8⁺ T cells in spleens (F), LNs (G), and tumors (H); frequencies and absolute numbers of endogenous CD4⁺ (G) and CD8⁺ (I) T cells in LNs are quantified. […]

[2] = test system: Treg cells; test: Treg polarization, Foxp3 by flow cytometry (Figure 1I); format: cell-based, mouse
Method: Naive CD4^+ T cells were isolated from the spleens of C57BL/6J or CD45.1^+ OT-II mice using the MojoSort Mouse CD4 Naive T Cell Isolation Kit (BioLegend, catalog 480040), following the manufacturer’s protocol. Purified cells were cultured in RPMI-1640 medium supplemented with 10% FBS, 1% penicillin-streptomycin, and 0.1% β-mercaptoethanol (Gibco, catalog 21985023).
T cell polarization was initiated under plate-bound anti-CD3 (2 μg/mL, clone 17A2, BioXCell, catalog BE0002) and soluble anti-CD28 (1 μg/mL, clone 37.51, BioXCell, catalog BE0015-1) stimulation, with the addition of cytokines and neutralizing antibodies specific to each subset. For Th9 cells, these included IL-4 (10 ng/mL, Peprotech, catalog 400-04), TGF-β (1 ng/mL, EPOTO Biotech, catalog HF-2021), anti–IL-12 (5 μg/mL, clone C17.8, BioXCell, catalog BE0051), and anti–IFN-γ (10 μg/mL, clone XMG1.2, BioXCell, catalog BE0055); for Th1 cells, these included IL-12 (10 ng/mL, GenScript, catalog Z03211-50) and anti–IL-4 (5 μg/mL, clone 11B11, BioXCell, catalog BE0045); for Th2 cells, these included IL-4 (50 ng/mL), anti–IFN-γ (20 μg /mL), anti–IL-12 (5 μg/mL), Th17 cells: IL-6 (20 ng/mL, EPOTO Biotech, catalog MF-1006), TGF-β (1 ng/mL), IL-1β (10 ng/mL, Peprotech, catalog AF-211-11B), anti–IFN-γ (10 μg/mL), anti–IL-12 (5 μg/mL), and anti–IL-4 (5 μg/mL); and for Tregs, these included TGF-β (3 ng/mL). […]

anteiso-C15 Leu7 surfactin [EpA]
body weight [1]: No significant differences
Foxp3 expression under Treg polarization ([2]; EpA 10 μM, individual replicates, n = 4): 47.3 and 45.9 and 45.6 and 47.5
effect on Treg polarization ([2]; result in words): did not affect
